≈ marks a conversion by molar mass, not a printed value.
What was measured:
[1] = test system: male Sprague-Dawley (SD) rats; test: Carrageenan-induced foot edema in rats (CFE); type: in vivo; details: rat, paw volume 3 hours after Carrageenan
Procedure: An appropriate amount of a compound of this invention suspended in 1% methylcellulose (MC) solution was administered to male Sprague-Dawley (SD) rats weighing 150˜200 g by oral gavage. The volume of the administered vehicle for a compound of this invention was controlled to be smaller than 10 ml/kg body weight of the animal. One hour later, 0.1 ml of 1% Carrageenan saline solution was directly injected into the right paw of the rats to induce edema in the paw. The paw volumes at 0 hour and at 3 hours after the injection of Carrageenan were measured by using a displacement plethysmometer (Ugo Basile, Italy). The paw volumes were used to calculate % inhibition of CFE by an amount of a compound of this invention according to the following equation.
% Inhibition of CFE=(1−Δtreated/Δcontrol)×100
wherein Δtreated=[paw volume at three hours after the Carrageenan injection−paw volume right after Carrageenan injection] for a drug-administered rat, and Δcontrol=[paw volume at three hours after the Carrageenan injection−paw volume right after Carrageenan injection] for a rat without drug administration.
In order to determine the inhibitory activity of a compound of this invention at a dose, usually 5 to 8 animals were used both for drug-treated group and for control group.

ICR mice = test: Acetic acid-induced writhing test; type: in vivo, mouse; details: oral gavage
Procedure: ICR mice weighing 18˜22 g were maintained in a controlled lighting environment (12 hours on/12 hours off) and fasted overnight prior analgesic testing. Mice were administered with a compound of this invention dissolved in 10:10:80 ethanol/Tween 80/saline or vehicle only by oral gavage. The administered vehicle volume was controlled to be 10 ml/kg body weight. One hour later, the animals were treated with 0.2 ml of 1.2% acetic acid by peritoneal injection. 6 minutes later, the number of abdominal constrictions was counted for a 6 minutes period. The antinociceptive activity was expressed as the reduction in the number of abdominal constrictions, compared with that of the placebo group [J. Med. Chem. 39, 4942 (1996)]. ED50 of the mouse writhing test denotes a dose level at which the number of abdominal constrictions is half that of the placebo group. Ten animals per group were used for this study.

male SD rats [2] = test: Carrageenan-induced thermal hyperalgesia assay; type: in vivo, rat; details: 3 hours
Procedure: Male SD rats weighing 170˜220 g were fasted but with free access to water for at leat 16 hours prior to testing. The rats were administered with a compound of this invention suspended in 20 ml 0.5% methylcellulose/0.025% Tween-20, or with vehicle only. Then the rats were given […] of 1% carrageenan in saline or […] saline only into the plantar surface of the left hindpaw by injection. Three hours later, the nociceptive responses to thermal stimuli were assessed as follows: Rats, which were placed in a transparent plastic chamber with a glass floor, were allowed to acclimate to their environment for 10 minutes prior to the testing. The withdrawal latency period in seconds was determined for the control and the compound treated group, and a percent inhibition in the withdrawal latency was calculated to estimate the analgesic effect of the compound [Pain 32, 77 (1988)]. In this study 6 animals were used for each group.

COX-2 = target: T1, COX-2 (Mus musculus, UniProt Q05769); test: Evaluation of COX-2 activity: PGE2 formation in aspirin-treated, LPS-stimulated mouse peritoneal macrophages; type: cell-based
T1 sequence (Q05769 18-604): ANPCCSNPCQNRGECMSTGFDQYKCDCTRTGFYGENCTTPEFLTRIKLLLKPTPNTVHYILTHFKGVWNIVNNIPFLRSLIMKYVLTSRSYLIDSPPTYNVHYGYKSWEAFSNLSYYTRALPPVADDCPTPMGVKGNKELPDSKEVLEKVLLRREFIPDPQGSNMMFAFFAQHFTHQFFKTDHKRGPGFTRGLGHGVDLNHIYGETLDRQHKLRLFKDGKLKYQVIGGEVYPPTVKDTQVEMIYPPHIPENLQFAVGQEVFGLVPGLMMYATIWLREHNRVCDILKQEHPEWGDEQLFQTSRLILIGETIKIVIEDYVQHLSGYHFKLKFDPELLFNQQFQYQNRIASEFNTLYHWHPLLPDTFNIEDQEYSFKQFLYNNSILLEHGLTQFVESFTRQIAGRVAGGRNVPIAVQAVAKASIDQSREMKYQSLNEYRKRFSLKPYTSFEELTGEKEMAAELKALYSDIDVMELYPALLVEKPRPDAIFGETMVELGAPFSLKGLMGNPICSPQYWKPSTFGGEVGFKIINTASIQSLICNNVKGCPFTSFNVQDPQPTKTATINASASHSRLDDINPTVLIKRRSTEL
Summary of the method: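 C57BL/6 peritoneal macrophages treated with 500 μM aspirin to block COX-1, adhered, then stimulated with 10 μg/ml LPS for 16 h at 37 °C to induce COX-2.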

COX-1 = target: T2, COX-1 (Mus musculus, UniProt P22437); test: Evaluation of COX-1 activity: PGE2 formation in mouse peritoneal macrophages without aspirin and LPS treatment; type: cell-based
T2 sequence (P22437 27-602): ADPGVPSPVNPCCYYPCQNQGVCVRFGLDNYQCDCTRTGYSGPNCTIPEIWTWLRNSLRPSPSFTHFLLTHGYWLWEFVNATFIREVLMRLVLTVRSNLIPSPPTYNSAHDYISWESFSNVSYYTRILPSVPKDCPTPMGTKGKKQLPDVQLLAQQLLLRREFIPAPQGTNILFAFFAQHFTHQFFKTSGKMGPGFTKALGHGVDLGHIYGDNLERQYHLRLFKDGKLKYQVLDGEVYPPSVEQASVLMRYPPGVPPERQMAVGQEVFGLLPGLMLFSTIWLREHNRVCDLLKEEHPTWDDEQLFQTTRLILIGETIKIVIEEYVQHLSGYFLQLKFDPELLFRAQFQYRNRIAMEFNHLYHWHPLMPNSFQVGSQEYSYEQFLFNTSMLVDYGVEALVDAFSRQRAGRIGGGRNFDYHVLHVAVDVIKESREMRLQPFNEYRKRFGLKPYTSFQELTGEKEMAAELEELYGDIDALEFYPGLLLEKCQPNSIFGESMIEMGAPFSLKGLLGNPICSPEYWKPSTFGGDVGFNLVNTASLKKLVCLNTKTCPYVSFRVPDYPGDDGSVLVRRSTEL
Summary of the method: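 Peritoneal macrophages from C57BL/6 mice, without aspirin or LPS treatment, were plated at 1×10^6 cells/ml and fixed 2 h at 37 °C. Cells were preincubated 10 min, then given 10 μM arachidonic acid plus compound for 10 min; PGE2 was measured by RIA or EIA. IC50 came from 4–5 concentrations.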

[3] = Pharmacokinetic studies in rats; type: in vivo, rat; details: Example 393 orally administered to a SD rat at 10 mg/kg body weight; plasma, HPLC (FIG. 1)
Procedure: An appropriate amount of a compound suspended 1% aqueous methylcellulose solution was administered to a male SD rat by oral gavage. Blood samples were collected from the retro-orbital sinus at designated times over 24˜48 hours. Plasma was separated from each blood sample by centrifugation and the plasma was stored at 4° C. until analysis. The plasma samples prepared thereby were subjected to analysis by reverse phase HPLC (high performance liquid chromatography) using an appropriate internal standard.

male SD rat = test: Gastric safety studies (Ulcer Index); type: in vivo; details: daily dose 30 mg/kg body weight oral for 7 days, mean of animals' scores
Procedure: Gastric safety for compounds of this invention was evaluated as follows [Otterness et al., Laboratory Models for Testing Nonsteroidal Anti-inflammatory Drugs in Nonsteroidal Anti-inflammatory Drugs; ed John Wiley & Sons pp 217-227 (1985); Wiley Interscience; New York]: A designated dose of a compound of this invention suspended in 1% methylcellulose solution was administered daily once for 7 days to a male SD rat by oral gavage. The animal was sacrificed and the inner wall of the stomach was examined visually 4 hours after the last administration (the 7th day administration). The gastric safety was assessed by the “Ulcer Index” as defined as the following scores: […]
Score 1: apparently normal stomach.
Score 2: one or more than one ulcer site of pin-point size only.
Score 3: erosions of 2 or fewer than 2, which may be accompanied by ulcers of pin-point size (an erosion is defied by any ulcerative lesion of any dimension greater than 1 mm).
Score 4: erosions more than 2, which may be accompanied by ulcers of pin-point size.
Score 5: erosions accompanied by hemorrhage.
In evaluating the gastric safety of a compound of this invention, usually 8 animals were used. The ulcer index for a compound was calculated by averaging of the ulcer index of each animal. The following Table 5 illustrates gastric safety of some COX-2 selective inhibitors of this invention.

male SD rats [4] = test: Antiinflammatory potency by adjuvant arthritis (AA); type: in vivo; details: daily oral dose day 14 to day 22, rat
Procedure: Arthritis was induced in male SD rats weighing 180-200 g by subcutaneous injection of Mycobacterium butyricum mixed in 0.1 ml of incomplete Freund's adjuvanat into the base of the tail. The foot volumes were measured using a displacement plethysomometer 14 days after the injection of the adjuvant. Animals with paw volumes greater than the normal paw volumes (without the adjuvant treatment) by 0.37 ml were selected, and then randomized. A designated daily dose of a compound of this invention, which was suspended in 1% aqueous methylcellulose solution, was administered to the randomized rats with arthritis by oral gavage daily once beginning on day 14 after the injection of the adjuvant. The administration of the compound continued till day 22 after the injection of the adjuvant, and the paw volumes were measured on daily basis using a displacement plethysmometer.
% Inhibition of AA=(1−Δtreated/Δcontrol)×100
wherein Δtreated=[(paw volume at day 22)/(paw volume at day 14)−1] for a drug-administered rat, and Δcontrol=[(paw volume at day 22)/(paw volume at day 14)−1] for a rat without drug administration.
ED50 value was determined b a dose-response curve for each compound.

SMILES | IC50, μg/ml COX-2 (COX-2) | IC50, μg/ml COX-1 (COX-1) | biotransformation of the sulfoxide group into the sulfonyl group [3] | melting point | % Inhibition (CFE) ([1]; oral dose 1 mg/kg body weight) | ED50 (mouse writhing) (ICR mice) | % Inhibition at 1.0 mg/kg body weight (rat hyperalgesia) (male SD rats [2]) | % Inhibition (CFE) ([1]; oral dose 3 mg/kg body weight) | Ulcer Index (1˜5) (male SD rat) | Adjuvant Arthritis ED50 (male SD rats [4])
COc1ccc2c(c1)c(CC(=O)O)c(C)n2C(=O)c1ccc(Cl)cc1 [indomethacin, reference compound] |  |  |  |  | 28% | 7.4 mg/kg body weight | 45% |  |  | 
CC(=O)c1ccc(C2=C(c3ccc(S(C)(=O)=O)cc3)OC(C)(C)C2=O)cc1 [Example 10, 4-(4-Acetylphenyl)-2,2-dimethyl-5-{4-(methylsulfonyl)phenyl}-3(2H)-furanone] | 0.3 µg/mL (≈ 0.78 µM) | 50 µg/mL (≈ 130 µM) |  |  |  |  |  |  | 1.2 ± 0.4 | 
CC1(C)OC(c2ccc(S(C)(=O)=O)cc2)=C(c2cccc(C(F)(F)F)c2)C1=O [Example 14] |  |  |  | 115 to 116 °C |  |  |  | 32% |  | 0.06 mg/kg body weight
CC(C)c1ccc(C2=C(c3ccc(S(C)(=O)=O)cc3)OC(C)(C)C2=O)cc1 [Example 84] | 0.03 µg/mL (≈ 0.078 µM) | 3 µg/mL (≈ 7.8 µM) |  | 121 to 123 °C |  |  |  | 25% |  | 
Cc1cccc(C2=C(c3ccc(S(C)(=O)=O)cc3)OC3(CCCC3)C2=O)c1 [Example 255] | 0.03 µg/mL (≈ 0.0784 µM) | 3 µg/mL (≈ 7.84 µM) |  | 142 to 143 °C |  |  |  | 31% |  | 
CCSc1ccc(C2=C(c3ccc(S(N)(=O)=O)cc3)OC(C)(C)C2=O)cc1 [Example 146] | 0.0014 µg/mL (≈ 0.00347 µM) | 0.83 µg/mL (≈ 2.06 µM) |  | 185 °C |  |  |  | 24% |  | 
C[S+]([O-])c1ccc(C2=C(c3cc(F)cc(F)c3)C(=O)C(C)(C)O2)cc1 (stereo not shown) [Example 177, 4-(3,5-Difluorophenyl)-2,2-dimethyl-5-{4-(methylsulfinyl)phenyl}-3(2H)-furanone] | 5 µg/mL (≈ 13.8 µM) | 30 µg/mL (≈ 82.8 µM) |  | 133 to 134 °C |  |  |  | 37% |  | 

Continued, in another order:

IC50, μg/ml COX-2 (COX-2) | IC50, μg/ml COX-1 (COX-1) | biotransformation of the sulfoxide group into the sulfonyl group [3] | melting point | SMILES | % Inhibition (CFE) ([1]; oral dose 1 mg/kg body weight) | ED50 (mouse writhing) (ICR mice) | % Inhibition at 1.0 mg/kg body weight (rat hyperalgesia) (male SD rats [2]) | % Inhibition (CFE) ([1]; oral dose 3 mg/kg body weight) | Ulcer Index (1˜5) (male SD rat) | Adjuvant Arthritis ED50 (male SD rats [4])
0.3 µg/mL (≈ 0.831 µM) | 5 µg/mL (≈ 13.9 µM) | biotransformed into the sulfonyl group |  | C[S+]([O-])c1ccc(C2=C(c3cccc(Cl)c3)C(=O)C(C)(C)O2)cc1 (stereo not shown) [Example 393, 4-(3-Chlorophenyl)-2,2-dimethyl-5-{4-(methylsulfinyl)phenyl}-3(2H)-furanone] |  |  |  |  |  | 
0.03 µg/mL (≈ 0.0757 µM) | 10 µg/mL (≈ 25.2 µM) |  | 158 to 159 °C | CC1(C)OC(c2ccc(S(C)(=O)=O)c(F)c2)=C(c2ccc(F)c(F)c2)C1=O [Example 284] |  |  |  | 33% |  | 
0.02 µg/mL (≈ 0.0505 µM) | 50 µg/mL (≈ 126 µM) |  | 149 to 150 °C | CC1(C)OC(c2ccc(S(N)(=O)=O)c(Cl)c2)=C(c2cccc(F)c2)C1=O [Example 369] |  |  |  | 28% |  | 
0.03 µg/mL (≈ 0.0755 µM) | 3 µg/mL (≈ 7.55 µM) |  | 199 to 200 °C | CC1(C)OC(c2ccc(S(N)(=O)=O)c(F)c2)=C(c2ccc(F)c(F)c2)C1=O [Example 311] |  |  |  | 30% |  | 
0.003 µg/mL (≈ 0.00755 µM) | 3 µg/mL (≈ 7.55 µM) |  | 185 to 187 °C | CC1(C)OC(c2ccc(S(N)(=O)=O)cc2F)=C(c2cc(F)cc(F)c2)C1=O [Example 335] |  |  |  | 32% |  | 
0.05 µg/mL (≈ 0.132 µM) | 10 µg/mL (≈ 26.4 µM) |  | 160 to 161 °C | CC1(C)OC(c2ccc(S(C)(=O)=O)c(F)c2)=C(c2ccc(F)cc2)C1=O [Example 276] |  |  |  | 26% |  | 
0.009 µg/mL (≈ 0.0218 µM) | 4 µg/mL (≈ 9.69 µM) |  | 150 to 151 °C | CC1(C)OC(c2ccc(S(C)(=O)=O)c(Cl)c2)=C(c2ccc(F)c(F)c2)C1=O [Example 361] |  |  |  | 41% |  | 

— US6492416B1, “4,5-diaryl-3(2H)-furanone derivatives as cyclooxygenase-2 inhibitors” (Pacific Corporation, priority 1999, dated 2002)
